# Source: US7648983B2, “BACE inhibitors” (Eli Lilly and Company, priority 2008, dated 2010)
# Counter-ions that a name gives are not always drawn. Like-named read-outs stand apart in the source and are kept apart here.
# Key:
# beta-secretase = target: T1, beta-secretase (Mus musculus, UniProt P56818); assay: In vivo inhibition of beta-secretase in PDAPP mice; conditions: 3 hours
# T1 construct: from tissue; host or cells: living PDAPP mice; brain cortex, plasma and CSF analysed
# Excerpt: Several animal models, including mouse, guinea pig, dog, and monkey, may be used to screen for inhibition of beta-secretase activity in vivo following compound treatment. Animals used in this invention can be wild type, transgenic, or gene knockout animals. For example, the PDAPP mouse model, prepared as described in Games et al., Nature 373, 523-527 (1995), and other non-transgenic or gene knockout animals are useful to analyze in vivo inhibition of Abeta and sAPPbeta production in the presence of inhibitory compounds. Generally, 2 to 12 month old PDAPP mice, gene knockout mice or non-transgenic animals are administered compound formulated in vehicles, such as corn oil, cyclodextran, phosphate buffers, PHARMASOLVE®, or other suitable vehicles. One to twenty-four hours following the administration of compound, animals are sacrificed, and brains as well as cerebrospinal fluid and plasma are removed for analysis of Abetas, C99 and sAPP fragments. (See Dovey, et al., Journal of Neurochemistry, 76, 173-181 (2001); and Johnson-Wood, et al., Proc. Natl. Acad. Sci. USA, 94, 1550-1555 (1997)).
# For standard efficacy studies, animals are dosed with various concentrations of compound and compared to a vehicle-treated control group dosed at the same time. For some time course studies, brain tissue, plasma or cerebrospinal fluid is obtained from selected animals, beginning at time 0 to establish a baseline. Compound is administered to other groups and sacrificed at various times after dosing. Brain tissue, plasma or cerebrospinal fluid is obtained from selected animals and analyzed for the presence of APP cleavage products, including Abeta peptides, sAPPbeta and other APP fragments, for example, by specific sandwich ELISA assays. At the end of the test period, animals are sacrificed and brain tissues, plasma or cerebrospinal fluid are analyzed for the presence of Abeta peptides, C99 and sAPPbeta. Brain tissues of APP transgenic animals are also analyzed for the amount of beta-amyloid plaques following compound treatment.
# For example, 3 hours after administration of 100 mg/kg sub-cutaneous dose of the compound of example 19 to young male PDAPP mice, Abeta 1-x peptide, C99 and sAPPb levels are reduced approximately 30%, 50% and 20% in brain cortex, respectively, compared to vehicle-treated mice.
# [1] = target: T2, beta-secretase (BACE) in HEK293/APP751sw cells (Homo sapiens, UniProt P56817); assay: HEK293Swe whole cell assay (Abeta ELISA); format: cell-based
# T2 construct: endogenous in cells; host or cells: HEK293p (ATCC CRL-1573) stably expressing human APP751 Swedish
# Procedure: (§1) For in vitro enzymatic and cellular assays, test compounds are prepared in DMSO to make up a 10 mM stock solution. The stock solution is serially diluted in DMSO to obtain a ten-point dilution curve with final compound concentrations ranging from […] to 1 pM in a 96-well round-bottom plate before conducting the in vitro enzymatic and whole cell assays.
# The routine whole cell assay for the measurement of inhibition of beta-secretase activity utilizes the human embryonic kidney cell line HEK293p (ATCC Accession No. CRL-1573) stably expressing a human APP751 cDNA containing the naturally occurring double mutation Lys651Met652 to […], commonly called the Swedish mutation (noted HEK293/APP751sw) and shown to overproduce Abeta (Citron, et al., Nature, 360, 672-674 (1992)). In vitro Aβ reduction assays have been described in the literature (See Dovey, et al., Journal of Neurochemistry, 76, 173-181 (2001); Seubert, et al., Nature, 361, 260 (1993); and Johnson-Wood, et al., Proc. Natl. Acad. Sci. USA, 94, 1550-1555 (1997)).
# (§2) Cells (HEK293/APP751sw at 3.5×10^4 cells/well, containing 200 μL culture media, DMEM containing 10% FBS) are incubated at 37° C. for 4 to 24 h in the presence/absence of inhibitors (diluted in DMSO) at the desired concentration. At the end of the incubation, conditioned media are analyzed for evidence of beta-secretase activity, for example, by analysis of Abeta peptides. Total Abeta peptides (Abeta 1-x) are measured by a sandwich ELISA, using monoclonal 266 as a capture antibody and biotinylated 3D6 as reporting antibody. Alternatively, Abeta 1-40 and Abeta 1-42 peptides are measured by a sandwich ELISA, using monoclonal 2G3 as a capture antibody for Abeta 1-40, and monoclonal 21F12 as a capture antibody for Abeta 1-42. Both Abeta 1-40 and Abeta 1-42 ELISAs use biotinylated 3D6 as the reporting antibody. The concentration of Abeta released in the conditioned media following the compound treatment corresponds to the activity of BACE under such conditions. The 10-point inhibition curve is plotted and fitted with the four-parameter logistic equation to obtain the EC50 and IC50 values for the Abeta-lowering effect.
# [2] = target: T3, beta-secretase (BACE) in primary cortical neurons from PDAPP transgenic embryonic mice (Mus musculus, UniProt P56818); assay: PDAPP primary neuronal assay (Abeta ELISA); format: cell-based
# T3 construct: endogenous in cells; host or cells: primary cortical neurons from Embryonic Day 16 PDAPP transgenic mouse embryos
# Procedure: as §1
# as §2, with “A confirmatory whole cell assay is also run in primary neuronal cultures generated from PDAPP transgenic embryonic mice. Primary cortical neurons are prepared from Embryonic Day 16 PDAPP embryos and cultured in 96 well plates (15×10^4 cells/well in DMEM/F12 (1:1) plus 10% FBS). After 4-6 days in vitro, culture media is replaced with serum free DMEM/F12 (1:1)” for “Cells (HEK293/APP751sw at 3.5×10^4 cells/well,”, “B27 supplement and neurons” for “200 μL culture media, DMEM containing 10% FBS)”, “for” for “for 4 to”, “effect. […]” for “effect.”
# human BACE(1-460):Fc = target: T4, human BACE(1-460):Fc (Homo sapiens, UniProt P56817); assay: BACE FRET assay; format: biochemical
# T4 construct: made in house; host or cells: HEK293 cells (transient, pJB02 vector), purified from conditioned media by Protein A
# Procedure: as §1
# Serial dilutions of test compounds are prepared as described above. Compounds are further diluted 20× in KH2PO4 buffer. Ten μL of each dilution is added to each well on row A to H of a corresponding low protein binding black plate containing the reaction mixture (25 μL of 50 mM KH2PO4, pH 4.6, 1 mM TRITON® X-100, 1 mg/mL Bovine Serum Albumin, and 15 μM of FRET substrate) (See Yang, et. al., J. Neurochemistry, 91(6) 1249-59 (2004)). The content is mixed well on a plate shaker for 10 minutes. Fifteen μL of two hundred pM human BACE(1-460):Fc (See Vasser, et al., Science, 286, 735-741 (1999)) in the KH2PO4 buffer is added to the plate containing substrate and test compounds to initiate the reaction. The RFU of the mixture at time 0 is recorded at excitation wavelength 355 nm and emission wavelength 460 nm, after brief mixing on a plate shaker. The reaction plate is covered with aluminum foil and kept in a dark humidified oven at room temperature for 16 to 24 h. The RFU at the end of incubation is recorded with the same excitation and emission setting. The difference of the RFU at time 0 and the end of incubation is representative of the activity of BACE under the compound treatment. RFU differences are plotted versus inhibitor concentration and a curve is fitted with a four-parameter logistic equation to obtain the EC50 and IC50 values. (See Sinha, et al., Nature, 402, 537-540 (2000)).
# Human (accession number: AF190725) is cloned from total brain cDNA by […]. The nucleotide sequences corresponding to amino acid sequences #1 to 460 are inserted into the cDNA encoding human IgG1 (Fc) polypeptide (Vassar et al. 1999). This fusion protein of BACE(1-460) and human Fc, named huBACE:Fc, is constructed into the pJB02 vector. Human BACE(1-460):Fc (huBACE:Fc) is transiently expressed in HEK293 cells. 250 μg cDNA of each construct is mixed with Fugene 6 and added to 1 liter HEK293 cells. Four days after the transfection, conditioned media are harvested for purification.
# huBACE:Fc is purified by Protein A chromatography. The enzyme is stored at −80° C. in small aliquots.
# [3] = 30 mg/kg sub-cutaneous, young male PDAPP mice, brain, vs vehicle-treated mice
# [4] = Table 27, Abeta 1-40 in conditioned media, read-out: HEK 293 Swe A-beta (1-40) ELISA IC50
# [5] = Table 27, Abeta 1-42 in conditioned media, read-out: HEK 293 Swe A-beta (1-42) ELISA IC50
# [6] = Table 28, Abeta 1-40 in conditioned media, 24 h, read-out: PDAPP Neuron A-beta (1-40) ELISA IC50
# [7] = Table 28, Abeta 1-42 in conditioned media, 24 h, read-out: PDAPP Neuron A-beta (1-42) ELISA IC50
# [8] = Table 26, purified recombinant huBACE:Fc, FRET substrate, pH 4.6
# [9] = 100 mg/kg sub-cutaneous, young male PDAPP mice, vs vehicle-treated mice
# [10] = Table 29, comparator of WO 2007/049532 and enantiomers, read-out: HEK 293 Swe A-beta (1-40) ELISA IC50
# [11] = Table 29, comparator of WO 2007/049532 and enantiomers, read-out: HEK 293 Swe A-beta (1-42) ELISA IC50
# [12] = Table 29, comparator of WO 2007/049532 and enantiomers
# [13] = Table 29, comparator of WO 2007/049532 and enantiomers, read-out: PDAPP Neuron A-beta (1-40) ELISA IC50
# [14] = Table 29, comparator of WO 2007/049532 and enantiomers, read-out: PDAPP Neuron A-beta (1-42) ELISA IC50
# T2 sequence (P56817 46-501): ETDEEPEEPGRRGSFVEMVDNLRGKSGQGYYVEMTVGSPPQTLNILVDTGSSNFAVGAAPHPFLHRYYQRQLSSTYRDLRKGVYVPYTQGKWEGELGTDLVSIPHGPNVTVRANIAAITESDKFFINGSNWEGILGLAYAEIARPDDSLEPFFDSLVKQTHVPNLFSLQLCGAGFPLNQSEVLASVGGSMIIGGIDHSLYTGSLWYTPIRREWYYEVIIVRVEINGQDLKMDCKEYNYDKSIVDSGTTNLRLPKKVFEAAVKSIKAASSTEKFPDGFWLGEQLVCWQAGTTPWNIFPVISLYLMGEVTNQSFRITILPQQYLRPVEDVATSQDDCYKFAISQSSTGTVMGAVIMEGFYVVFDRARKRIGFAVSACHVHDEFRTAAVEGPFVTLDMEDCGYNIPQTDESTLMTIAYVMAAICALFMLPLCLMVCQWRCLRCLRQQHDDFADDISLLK
# T1 sequence (P56818 46-501): as the sequence (P56817 46-501) above, with P6S, V162I, L165I, S180T, V182A, I340V, L393A, Q443H counted along it
# T3 sequence (P56818 46-501): as the sequence (P56817 46-501) above, with P6S, V162I, L165I, S180T, V182A, I340V, L393A, Q443H counted along it
# T4 sequence (P56817 22-460): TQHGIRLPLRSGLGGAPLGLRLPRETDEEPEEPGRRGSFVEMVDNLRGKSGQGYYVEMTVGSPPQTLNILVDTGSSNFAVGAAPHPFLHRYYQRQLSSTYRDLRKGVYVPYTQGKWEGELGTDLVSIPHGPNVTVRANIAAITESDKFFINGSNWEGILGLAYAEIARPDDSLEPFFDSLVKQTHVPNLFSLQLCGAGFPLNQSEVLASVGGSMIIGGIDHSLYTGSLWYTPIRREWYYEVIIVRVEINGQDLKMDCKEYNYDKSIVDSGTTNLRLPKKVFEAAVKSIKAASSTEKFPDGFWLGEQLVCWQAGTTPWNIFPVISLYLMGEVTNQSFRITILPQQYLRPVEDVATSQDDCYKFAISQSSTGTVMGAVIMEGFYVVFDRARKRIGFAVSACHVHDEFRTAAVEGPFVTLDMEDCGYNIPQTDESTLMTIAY
"IC50 [1, 4] [nM]","IC50 [1, 5] [nM]","IC50 [2, 6] [nM]","IC50 [2, 7] [nM]",IC50 (human BACE(1-460):Fc; [8]) [nM],"IC50 [1, 10] [nM]","IC50 [1, 11] [nM]",IC50 (human BACE(1-460):Fc; [12]) [nM],SMILES,also measured
,,,,,,,,"C[C@@]1(c2cc(-c3cncnc3)c(F)cc2F)CCSC(N)=N1 [Example 5, (S)-4-(2,4-Difluoro-5-pyrimidin-5-yl-phenyl)-4-methyl-5,6-dihydro-4H-[1,3]thiazin-2-ylamine]","CSF Abeta 1-x level reduction (beta-secretase; 10 mg/kg oral, CSF): ~60%; plasma Abeta 1-x level reduction (beta-secretase; 10 mg/kg oral, plasma): approximately 50%; Abeta 1-x peptide level reduction (beta-secretase; [3]): approximately 50%; C99 level reduction (beta-secretase; [3]): ~45%; sAPPb level reduction (beta-secretase; [3]): approximately 30%"
1300,948,658,648,833,,,,"C[C@@]1(c2ccc(F)c(-c3cnccn3)c2)CCSC(N)=N1 [Example 12, (S)-4-(4-fluoro-3-(pyrazin-2-yl)phenyl)-4-methyl-5,6-dihydro-4H-1,3-thiazin-2-amine dihydrochloride]",
335,480,288,214,420,,,,"COc1cncc(-c2cccc([C@]3(C)CCSC(N)=N3)c2)c1.Cl.Cl [Example 19, (S)-4-[3-(5-Methoxy-pyridin-3-yl)-phenyl]-4-methyl-5,6-dihydro-4H-[1,3]thiazin-2-ylamine dihydrochloride]",Abeta 1-x peptide level reduction in brain cortex (beta-secretase; [9]): approximately 30%; C99 level reduction in brain cortex (beta-secretase; [9]): approximately 50%; sAPPb level reduction in brain cortex (beta-secretase; [9]): ~20%
863,803,355,429,867,,,,"CC1(C)C[C@@](C)(c2ccc(F)c(-c3cncnc3)c2)N=C(N)S1 [Example 21, (S)-4-(4-fluoro-3-(pyrimidin-5-yl)phenyl)-4,6,6-trimethyl-5,6-dihydro-4H-1,3-thiazin-2-amine]",
,,,,,21400,35300,116000,CC1(c2ccc(-c3ccccc3)cc2)CCSC(N)=N1 (stereo not drawn) [reference compound],
,,,,,13200,16400,28000,C[C@@]1(c2ccc(-c3ccccc3)cc2)CCSC(N)=N1 [reference compound],"IC50 [2, 13]: 7820 nM; IC50 [2, 14]: 10400 nM"
,,,,,16500,23700,> 100000,C[C@]1(c2ccc(-c3ccccc3)cc2)CCSC(N)=N1 [reference compound],"IC50 [2, 13]: 28100 nM; IC50 [2, 14]: 46800 nM"
